Measured values from article PMC10224356, “Trisubstituted 1,3,5-Triazines as Histamine H4 Receptor Antagonists with Promising Activity In Vivo” (Molecules, 2023).
“Also recorded” adds a separate entry of the source.

Assays:
[1] = target: hH4R (Homo sapiens, UniProt Q9H3N8); assay: cAMP accumulation assay (LANCE Ultra cAMP, CHO-K1 cells stably expressing hH4R); assay type: cell-based; design: expressed in transfected cells; conditions: antagonist mode
[2] = target: T1, human histamine H4 receptor (Homo sapiens, UniProt Q9H3N8); assay: [3H]histamine displacement assay, membranes of Sf9 cells expressing hH4R with Gαi2 and Gβ1γ2; assay type: binding; conditions: Sf9 membranes, mean within 95% CI
T1 construct: made in house; host or cells: Sf9 cells (membrane preparations)
Description: The affinity of compounds 2–20 for hH4R was evaluated in a binding assay as previously described. [^3H]Histamine was used as a radioligand and hH4R was expressed in Sf9 cells with G protein Gαi2 and Gβ1γ2 subunits. The pharmacological results represented as Ki values are listed in Table 1 (for alicyclic derivatives) and Table 2 (for aliphatic derivatives). […] Results depended on the substituent in the four positions of a triazine (a main structure).
Affinities of all triazine derivatives were determined in a [^3H] histamine (f.c. 10 nM) displacement assay using membrane preparations from Sf9 cells expressing human H4R and co-expressed with Gαi2 and Gβ1γ2 subunits as described previously. Nonspecific binding was determined in the presence of unlabelled JNJ7777120 ([…]).

[3] = target: H1R (Homo sapiens, UniProt P35367); assay: Preliminary study at H1R
[4] = PAMPA assay (blood-brain barrier permeability); assay type: in vitro ADME
Description: This test is a popular method for estimating the possibility of crossing BBB through passive transport. […] Caffeine was used as a standard well-permeable compound.
The Gentest^TM PAMPA Plate System, purchased from Corning (Tewksbury, MA, USA), was used for permeability evaluation. Caffeine (a reference) and the compound tested were dissolved in DMSO (10 mM stocks) and after dilution to 200 μM in PBS (pH 7.4), added to donor wells. Then, after incubation for 5 h at room temperature, concentrations of tested compounds in donor and acceptor wells were estimated by the mass spectra (LC/MS) method as described previously. The UPLC/MS Waters […] TQD system with the TQ Detector (Waters, Milford, CT, USA) was used for this detection. The assay was performed in triplicate. The permeability value (Pe) was calculated using the formula described by Chen et al..

[5] = system: mice; assay: Chloroquine-induced pruritus; assay type: in vivo
Description: When comparing the activity of the tested in both used models, it should be noted that the efficacy (higher maximal effect) and potency (lower doses needed to obtain the same result) of the compound were better in histamine-induced pruritus. Nevertheless, compound 6 was also active in histamine-independent itch, which contrasts with the activity of pyrilamine representing a commonly used drug in the treatment of pruritus. […] The wide spectrum of antipruritic activity of compound 6 is very promising, considering that histamine-independent itch is still a crucial clinical problem in pruritus treatment.
The surface (around 2 cm^2) of the mice’s nape was shaved at least 2 days prior to experiments. On the day of the experiment, mice were individually placed in plastic chambers (15 × 15 × 30 cm) and after the 30 min habituation period, they were given an intradermal (i.d.) injection of histamine dihydrochloride (10 µmol/site) or chloroquine (CQ, 200 µg/site), which were dissolved in physiological saline and administrated in the constant volume of 20 μL. Immediately after the injection, scratching (series of movements considered as a single scratching bout) of the injected site by the hind paw was counted for 60 min or 30 min after histamine and CQ administration, respectively. Before pruritogens injection different groups of mice were treated i.p. with vehicle (10 mL/kg, negative control) or the dose–response of investigated compound.
Figure 9 The effect of compound 6 and reference compound pyrilamine (Pyr) on the number of scratching bouts during 60 min-long observation in histamine-induced pruritus (A) and 30 min-long observation in chloroquine-induced pruritus (B). The tested compound or vehicle (1% solution of Tween 80) was administered intraperitoneally (i.p.) 30 min before the intradermal (i.d.) injection of histamine or chloroquine. The results are presented as bar plots showing the mean ± SEM. Statistical analysis: one-way ANOVA followed by Dunnett’s post hoc test, * p < 0.05, ** p < 0.01, *** p < 0.001, n = 8–10 mice per group.

[6] = system: HepG2 cells; assay: Toxicity evaluation, MTS assay in HepG2 cells; assay type: cell-based, human
Description: Toxic substances can affect the cells. Early in the research process, it is crucial to determine whether obtained compounds can induce such effects. From our series of compounds, compound 6 was selected for toxicity evaluation. MTS assay was used to test toxicity on HepG2 and SH-SY5Y cell lines. HepG2 cells closely reflect the human liver cell model whereas SH-SY5Y neuroblastoma cells are used in models of neurodegenerative diseases (especially Parkinson’s disease) to study the cellular and molecular factors that lead to these disorders.
Compound 6, at concentrations ranging from 0.78 µM to 50 µM, was incubated with the respective cell lines for 48 h (HepG2) or 24 h (SH-SY5Y). Then, MTS reagent was added and absorbances at 490 nm were read after 1 h. […] The reduction in SH-SY5Y cell viability (Figure 6B) of an average of 4–12% was observed over the range of concentrations.
The hepatoma cell line HepG2 (ATCC® HB-8065TM) and SH-SY5Y CRL-2266 neuroblastoma cell line were used to evaluate the toxicity of tested compounds. Tests were conducted as described previously. CellTiter 96® Aqueous Non-Radioactive Cell Proliferation Assay was purchased from Promega (Madison, WI, USA). Compounds were tested at 7 concentrations (0.78, 1.56, 3.125, 6.25, 12.5, 25 and 50 µM). Cell viability was determined after incubation with compounds for […]. […]

T1 sequence (Q9H3N8 whole entry): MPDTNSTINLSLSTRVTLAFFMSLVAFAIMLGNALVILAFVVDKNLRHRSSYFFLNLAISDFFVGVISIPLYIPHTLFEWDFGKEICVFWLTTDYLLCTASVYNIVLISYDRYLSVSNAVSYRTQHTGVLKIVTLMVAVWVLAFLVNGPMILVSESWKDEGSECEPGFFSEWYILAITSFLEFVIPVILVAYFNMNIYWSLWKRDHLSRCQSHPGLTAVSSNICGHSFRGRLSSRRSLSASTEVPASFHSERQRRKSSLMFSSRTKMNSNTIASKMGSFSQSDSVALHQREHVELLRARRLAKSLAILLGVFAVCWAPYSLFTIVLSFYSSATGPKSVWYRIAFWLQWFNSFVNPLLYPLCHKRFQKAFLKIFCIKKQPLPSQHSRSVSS
Chain of hH4R (Q9H3N8 whole entry): as above
Chain of H1R (P35367 whole entry, species assumed): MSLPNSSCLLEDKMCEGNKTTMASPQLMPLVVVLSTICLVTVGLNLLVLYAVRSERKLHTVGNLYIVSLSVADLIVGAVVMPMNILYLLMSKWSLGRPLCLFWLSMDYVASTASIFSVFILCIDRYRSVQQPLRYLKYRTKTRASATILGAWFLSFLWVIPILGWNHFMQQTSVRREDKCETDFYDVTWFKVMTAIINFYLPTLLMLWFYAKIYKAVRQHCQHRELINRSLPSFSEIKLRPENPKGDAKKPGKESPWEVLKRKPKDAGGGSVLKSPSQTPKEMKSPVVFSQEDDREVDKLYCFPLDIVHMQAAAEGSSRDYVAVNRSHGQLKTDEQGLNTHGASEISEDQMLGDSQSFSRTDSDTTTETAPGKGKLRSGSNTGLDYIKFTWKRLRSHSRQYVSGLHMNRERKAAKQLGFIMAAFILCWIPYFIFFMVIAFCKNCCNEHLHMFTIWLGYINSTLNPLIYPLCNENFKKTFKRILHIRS

CN1CCN(c2nc(N)nc(CC3CCCC3)n2)CC1 [Compound 6, 4-(Cyclopentylmethyl)-6-(4-methylpiperazin-1-yl)-1,3,5-triazin-2-amine]
melting point: 165 to 168 °C | cAMP hH4R % of max. Antagonist Activity at 10 µM [1]: 100% | Ki [2]: 63 nM | H1R activity at 10 µM [3]: 0% | Mass Retention (R) ([4]; 200 µM, 5 h): 3.15% | Papp at 5 h, 200 µM ([4]; PBS pH 7.4, permeable if Pe > 1.5 × 10^−6 cm/s, read-out: Pe (permeability coefficient) ± SD): 12.3 ± 0.31 ×10⁻⁶ cm/s | Scratch bouts, chloroquine-induced pruritus, % of the control value ([5]; 50 mg/kg i.p., 30 min observation): 25.12 % of the control value | Number of scratch bouts, chloroquine-induced pruritus ([5]; 50 mg/kg i.p., 30 min observation (control 72.20 ± 11.59)): 18.14 ± 3.48 scratch bouts | Effect on number of scratch bouts, chloroquine-induced pruritus ([5]; doses 25 mg/kg and 50 mg/kg i.p.): significantly decreased the number of scratch bouts | Effect on number of scratch bouts, chloroquine-induced pruritus ([5]; doses of 6.25 mg/kg and 12.5 mg/kg i.p.): not statistically significant | Toxicity in HepG2 cells (MTS) ([6]; 0.78–50 µM, 48 h incubation): no toxicity up to 50 µM; also recorded: did not show significant toxicity in the tested concentration range (except for 6.25 µM concentration) | Reduction of HepG2 cell viability ([6]; even at the highest concentration (50 µM)): ≤ 50%
